Data as given in patent US20260272896A1, “ORAL D[…] OF MITRAGYNINE” (LUCKY 4U EXIMS, priority 2023, published 2026).

Assay: Long term storage stability of purified Mitragynine
Type: physicochemical
Conditions: stored at 2° C.-8° C.

CC[C@@H]1CN2CCc3c([nH]c4cccc(OC)c34)[C@@H]2C[C@@H]1/C(=C\OC)C(=O)OC [Mitragynine]
Storage stability: stable for long term storage
